From patent US20250135006A1, “AMPHIPHILIC TLR7/8 ADJUVANTS AND USES THEREOF” (Pfizer Inc., priority 2023, published 2025)

Experiments:
[1] = molecular target: T1, human toll like receptor 7 (hTLR7) (Homo sapiens, UniProt Q9NYK1); assay: hTLR7 in-vitro functional assay (HEK-Blue hTLR7 SEAP reporter); assay type: cell-based; settings: HEK-Blue hTLR7 cells, overnight incubation
T1 construct: host or cells: HEK293 (HEK-Blue hTLR7)
T1 sequence (Q9NYK1 27-1049): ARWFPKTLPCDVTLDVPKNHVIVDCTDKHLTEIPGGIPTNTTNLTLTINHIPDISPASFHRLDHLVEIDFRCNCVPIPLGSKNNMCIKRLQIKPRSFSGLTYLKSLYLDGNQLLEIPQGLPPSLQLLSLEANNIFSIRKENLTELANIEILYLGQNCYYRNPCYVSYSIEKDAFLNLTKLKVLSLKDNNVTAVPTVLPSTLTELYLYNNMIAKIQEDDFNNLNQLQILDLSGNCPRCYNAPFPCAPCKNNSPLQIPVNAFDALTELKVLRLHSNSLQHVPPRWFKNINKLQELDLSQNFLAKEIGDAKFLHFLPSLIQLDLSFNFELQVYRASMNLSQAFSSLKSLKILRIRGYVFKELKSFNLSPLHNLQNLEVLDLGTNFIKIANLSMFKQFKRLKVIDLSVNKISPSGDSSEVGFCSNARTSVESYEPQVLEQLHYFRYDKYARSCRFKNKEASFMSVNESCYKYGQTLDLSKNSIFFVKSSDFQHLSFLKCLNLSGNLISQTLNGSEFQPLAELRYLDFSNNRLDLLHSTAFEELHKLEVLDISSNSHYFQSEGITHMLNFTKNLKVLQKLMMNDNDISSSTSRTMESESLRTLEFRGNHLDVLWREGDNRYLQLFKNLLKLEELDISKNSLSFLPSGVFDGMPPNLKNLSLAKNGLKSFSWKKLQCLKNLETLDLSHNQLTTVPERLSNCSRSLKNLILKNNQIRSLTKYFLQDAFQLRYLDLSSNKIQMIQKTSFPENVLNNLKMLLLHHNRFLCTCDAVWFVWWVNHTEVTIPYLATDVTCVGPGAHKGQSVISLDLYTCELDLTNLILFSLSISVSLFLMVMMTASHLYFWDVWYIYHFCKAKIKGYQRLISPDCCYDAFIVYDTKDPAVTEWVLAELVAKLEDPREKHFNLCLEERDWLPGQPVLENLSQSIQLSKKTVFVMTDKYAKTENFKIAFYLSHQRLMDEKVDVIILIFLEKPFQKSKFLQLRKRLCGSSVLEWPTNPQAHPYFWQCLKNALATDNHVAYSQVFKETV
Text: (§1) To determine the ability of test compounds to activate the human toll like receptor 7 (hTLR7) or human toll like receptor 8 (hTLR8), cell-based reporter systems were utilized. HEK293 cells stably overexpressing either hTLR7 or hTLR8 along with a reporter gene containing an optimized secreted embryonic alkaline phosphatase gene (SEAP), under the control of the IFN-b minimal promoter fused to five NF-kB and AP-1-binding sites, were obtained from Invivogen (HEK-Blue™ hTLR7, cat #Hkb-htlr7; HEK-Blue™ hTLR8, cat #Hkb-htlr8). Stimulation of hTLR7 or hTLR8 in these cells activates NF-kB and AP-1 and induces the production of SEAP which can be quantified using an alkaline phosphatase detection reagent.
(§2) On day one of the assay, compounds were prepared using 11-point half-log serial dilutions from a 10 mM DMSO stock solution and 50 nL was spotted into 384-well plates (PerkinElmer, cat #6007480). Positive and negative controls were also spotted within the assay plate and were used to determine percent effect during the analysis process. After resuspension in DMEM assay media containing FBS heat inactivated (10%), Glutamax (2 mM) and Penicillin/Streptomycin, 10,000 cells/20 ul/well were added to previously prepared compound plates. Plates were incubated overnight (16-20 hrs) at 37° C. in a 5% CO2 environment. Prewetted Microclime lids (Labcyte, LLS-0310) were used to prevent evaporation. On day two of the assay, QUANTI-Blue™ detection reagent was prepared by reconstituting QUANTI-Blue™ powder (InvivoGen, Rep-qb1) with 100 ml of sterile water and allowed to equilibrate to 37° C. for 15 minutes. 20 ul of QUANTI-Blue™ detection reagent was added to each well and plates were incubated at room temperature for 180 min. At the end of the incubation, plates were read on an Envision (Perkin Elmer) plate reader capturing absorbance at 650 nm.
(§3) Using Positive (tool compound) and Negative (DMSO) controls, the percent (%) effect was calculated for each sample using the following equation: […]
(§4) The % effect at each concentration of compound was calculated utilizing the ABase software suite (IBDS) and was relative to the amount of SEAP produced in the positive and negative control wells contained within each assay plate. The concentrations and % effect values for test compounds were fit using a 4-parameter logistic model in ABase and the concentration of compound that produced 50% response (EC50) was calculated.

[2] = molecular target: T2, human toll like receptor 8 (hTLR8) (Homo sapiens, UniProt Q9NR97); assay: hTLR8 in-vitro functional assay (HEK-Blue hTLR8 SEAP reporter); assay type: cell-based; settings: HEK-Blue hTLR8 cells, overnight incubation
T2 construct: host or cells: HEK293 (HEK-Blue hTLR8)
T2 sequence (Q9NR97 27-1041): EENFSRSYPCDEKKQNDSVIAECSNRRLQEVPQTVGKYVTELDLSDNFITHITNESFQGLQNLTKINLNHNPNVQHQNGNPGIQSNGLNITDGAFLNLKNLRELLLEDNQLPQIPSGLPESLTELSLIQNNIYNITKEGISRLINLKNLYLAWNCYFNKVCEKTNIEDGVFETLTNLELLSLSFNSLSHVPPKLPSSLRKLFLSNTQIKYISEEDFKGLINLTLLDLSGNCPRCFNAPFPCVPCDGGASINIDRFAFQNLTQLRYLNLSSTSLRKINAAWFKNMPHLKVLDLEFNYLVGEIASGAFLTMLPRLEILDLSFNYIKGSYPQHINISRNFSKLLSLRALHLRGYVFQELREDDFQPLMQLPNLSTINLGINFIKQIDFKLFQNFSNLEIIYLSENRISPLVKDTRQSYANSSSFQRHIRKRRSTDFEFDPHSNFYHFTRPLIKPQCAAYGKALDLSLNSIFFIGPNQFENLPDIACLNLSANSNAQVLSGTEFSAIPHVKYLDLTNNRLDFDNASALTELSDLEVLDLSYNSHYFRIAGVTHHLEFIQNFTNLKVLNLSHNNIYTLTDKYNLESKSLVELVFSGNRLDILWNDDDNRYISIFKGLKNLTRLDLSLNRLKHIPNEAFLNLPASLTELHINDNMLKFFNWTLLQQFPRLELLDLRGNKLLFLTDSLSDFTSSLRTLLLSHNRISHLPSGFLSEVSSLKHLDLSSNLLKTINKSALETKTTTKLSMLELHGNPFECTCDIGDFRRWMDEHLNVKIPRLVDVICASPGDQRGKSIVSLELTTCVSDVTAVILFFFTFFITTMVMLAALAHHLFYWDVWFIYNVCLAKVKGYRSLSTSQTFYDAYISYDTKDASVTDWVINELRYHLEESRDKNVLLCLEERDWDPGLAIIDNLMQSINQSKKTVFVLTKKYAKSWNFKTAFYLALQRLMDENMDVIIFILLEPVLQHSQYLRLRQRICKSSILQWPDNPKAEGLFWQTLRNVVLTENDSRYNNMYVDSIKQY
Text: as §1, §2, §3, §4

Row | EC50 [1] [nM] | EC50 [2] [nM] | Structure (SMILES)
1 | 312 | 8280 | CCCCc1nc2c(N)nc3cc(CCCN4CCN(C(=O)CCOCCOCCOCCOCCOCCOCCOCCOCCOCCOCCOCCOCCNC(=O)CCOCCOCCOCCOCCNC(=O)CCCOc5c(C)c(C)c6c(c5C)CC[C@@](C)(CCC[C@H](C)CCC[C@H](C)CCCC(C)C)O6)CC4)ccc3c2n1CC(C)(CO)CO [Compound 25, N-{39-[4-(3-{4-amino-2-butyl-1-[3-hydroxy-2-(hydroxymethyl)-2-methylpropyl]-1H-imidazo[4,5-c]quinolin-7-yl}propyl)piperazin-1-yl]-39-oxo-3,6,9,12,15,18,21,24,27,30,33,36-dodecaoxanonatriacontan-1-yl}-17-oxo-20-({(2R)-2,5,7,8-tetramethyl-2-[(4R,8R)-4,8,12-trimethyltridecyl]-3,4-dihydro-2H-1-benzopyran-6-yl}oxy)-4,7,10,13-tetraoxa-16-azaicosan-1-amide]
2 | 3100 | 2970 | CCCCc1nc2c(N)nc3cc(CCCN4CCN(Cc5ccc(NC(=O)[C@H](C)NC(=O)[C@@H](NC(=O)COCCOCCNC(=O)O[C@H]6CC[C@@]7(C)C(=CC[C@H]8[C@@H]9CC[C@H]([C@H](C)CCCC(C)C)[C@@]9(C)CC[C@@H]87)C6)C(C)C)cc5)CC4)ccc3c2n1CC(C)(CO)CO [Compound 27, (3beta)-cholest-5-en-3-yl {(2S,5S)-1-((4-((4-(3-(4-amino-2-butyl-1-(3-hydroxy-2-(hydroxymethyl)-2-methylpropyl)-1H-imidazo[4,5-c]quinolin-7-yl)propyl)piperazin-1-yl)methyl)phenyl)amino)-5-isopropyl-2-methyl-1,4,7-trioxo-9,12-dioxa-3,6-diazatetradecan-14-yl}carbamate]
3 | 150 | 731 | CCCCc1nc2c(N)nc3cc(CCCN4CCN(C(=O)CCOCCOCCOCCOCCOCCOCCOCCOCCOCCOCCOCCOCCOCCOCCOCCOCCOCCOCCOCCOCCOCCOCCOCCOCCNC(=O)CCOCCOCCOCCOCCOCCOCCOCCOCCOCCOCCOCCOCCOCCOCCOCCOCCOCCOCCOCCOCCOCCOCCOCCOCCNC(=O)O[C@H]5CC[C@@]6(C)C(=CC[C@H]7[C@@H]8CC[C@H]([C@H](C)CCCC(C)C)[C@@]8(C)CC[C@@H]76)C5)CC4)ccc3c2n1CC(C)(CO)CO [Compound 8, (3beta,20R)-cholest-5-en-3-yl {151-[4-(3-{4-amino-2-butyl-1-[3-hydroxy-2-(hydroxymethyl)-2-methylpropyl]-1H-imidazo[4,5-c]quinolin-7-yl}propyl)piperazin-1-yl]-75,151-dioxo-3,6,9,12,15,18,21,24,27,30,33,36,39,42,45,48,51,54,57,60,63,66,69,72,79,82,85,88,91,94,97,100,103,106,109,112,115,118,121,124,127,130,133,136,139,142,145,148-octatetracontaoxa-76-azahenpentacontahect-1-yl}carbamate]
4 | 282 | 2610 | CCCCc1nc2c(N)nc3cc(CCCN4CCN(CCCOCCOCCOCCOCCOCCOCCOCCOCCOCCOCCOCCOCCOCCOCCOCCOCCOCCOCCOCCOCCOCCOCCOCCOCCNC(=O)CCOCCOCCOCCOCCNC(=O)O[C@H]5CC[C@@]6(C)C(=CC[C@H]7[C@@H]8CC[C@H]([C@H](C)CCCC(C)C)[C@@]8(C)CC[C@@H]76)C5)CC4)ccc3c2n1CC(C)(CO)CO [Compound 17, (3beta)-cholest-5-en-3-yl {91-[4-(3-{4-amino-2-butyl-1-[3-hydroxy-2-(hydroxymethyl)-2-methylpropyl]-1H-imidazo[4,5-c]quinolin-7-yl}propyl)piperazin-1-yl]-15-oxo-3,6,9,12,19,22,25,28,31,34,37,40,43,46,49,52,55,58,61,64,67,70,73,76,79,82,85,88-octacosaoxa-16-azahennonacont-1-yl}carbamate]
5 | 140 | 14400 | CCCCc1nc2c(N)nc3cc(CCCN4CCN(CCCOCCOCCOCCOCCOCCOCCOCCOCCOCCOCCOCCOCCOCCOCCOCCOCCOCCOCCOCCOCCNC(=O)O[C@H]5CC[C@@]6(C)C(=CC[C@H]7[C@@H]8CC[C@H]([C@H](C)CCCC(C)C)[C@@]8(C)CC[C@@H]76)C5)CC4)ccc3c2n1CC(C)(CO)CO [Compound 7, (3beta)-cholest-5-en-3-yl {63-[4-(3-{4-amino-2-butyl-1-[3-hydroxy-2-(hydroxymethyl)-2-methylpropyl]-1H-imidazo[4,5-c]quinolin-7-yl}propyl)piperazin-1-yl]-3,6,9,12,15,18,21,24,27,30,33,36,39,42,45,48,51,54,57,60-icosaoxatrihexacont-1-yl}carbamate]
6 | 278 | > 25000 | CCCCc1nc2c(N)nc3cc(CCCN4CCN(CCCOCCOCCOCCOCCOCCOCCOCCOCCOCCOCCOCCOCCOCCOCCOCCOCCOCCOCCOCCOCCOCCOCCOCCOCCNC(=O)O[C@H]5CC[C@@]6(C)C(=CC[C@H]7[C@@H]8CC[C@H]([C@H](C)CCCC(C)C)[C@@]8(C)CC[C@@H]76)C5)CC4)ccc3c2n1CC(C)(CO)CO [Compound 16, (20R)-cholest-5-en-3beta-yl {75-[4-(3-{4-amino-2-butyl-1-[3-hydroxy-2-(hydroxymethyl)-2-methylpropyl]-1H-imidazo[4,5-c]quinolin-7-yl}propyl)piperazin-1-yl]-3,6,9,12,15,18,21,24,27,30,33,36,39,42,45,48,51,54,57,60,63,66,69,72-tetracosaoxapentaheptacontan-1-yl}carbamate]
